Assay results: PMC7698016 (Metabolites, 2020)

Target: T1, AKR1C3 (aldo-keto reductase 1C3) (Homo sapiens, UniProt P42330)
T1 construct: human recombinant enzyme expressed in E. coli (Novus NBC1-21051)
Assay: Km by real-time NADPH fluorescence ([…]); GC-QToF gave Km […]
Type: biochemical

T1 sequence (P42330 whole entry): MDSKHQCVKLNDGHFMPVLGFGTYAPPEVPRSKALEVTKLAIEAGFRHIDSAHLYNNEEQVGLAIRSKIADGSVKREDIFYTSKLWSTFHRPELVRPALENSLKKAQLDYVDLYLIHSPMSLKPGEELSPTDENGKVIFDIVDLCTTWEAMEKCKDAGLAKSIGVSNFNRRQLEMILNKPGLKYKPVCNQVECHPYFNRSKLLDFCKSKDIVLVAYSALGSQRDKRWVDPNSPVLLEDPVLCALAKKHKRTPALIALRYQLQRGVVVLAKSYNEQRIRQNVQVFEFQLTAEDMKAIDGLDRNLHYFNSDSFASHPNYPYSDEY

In the case of C[C@]12CC[C@@H](O)C[C@H]1CC[C@@H]1[C@@H]2CC[C@]2(C)C(=O)CC[C@@H]12 [D, 3α-hydroxy-5β-androstan-17-one], the Km is reported as 9.7 µM.
